Experimental data published in patent publication US20220017512A1 (SHANGHAI ENNOVABIO PHARMACEUTICALS CO., LTD., priority 2018, published 2022).

What was measured:
Recombinant human TRKA = target: T1, Recombinant human TRKA (Homo sapiens, UniProt P04629); experiment: In vitro activity test on TRKA kinase (HTRF KinEASE TK); type: biochemical; details: 14.68 μM ATP, 40 min
T1 construct: purchased Carna Biosciences
Summary of the method: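 Reaction: 0.2 ng/μL TRKA, 1 μM biotinylated TK substrate, 14.68 μM ATP, 5 mM MgCl2, 1 mM DTT, 1% DMSO, 40 min at room temperature. Compounds tested at 1 μM to 0.05 nM (10-point, 3-fold, duplicate). HTRF 665/620 ratio converted to % inhibition versus no-compound control; IC50 by 4-parameter fit.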

Recombinant human TRKB = target: T2, Recombinant human TRKB (Homo sapiens, UniProt Q16620); experiment: In vitro activity test on TRKB kinase (HTRF KinEASE TK); type: biochemical; details: 4.77 μM ATP, 50 min
T2 construct: purchased Carna Biosciences
Summary of the method: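 Recombinant human TRKB (0.037 ng/μL) phosphorylated 1 μM biotinylated TK substrate at 4.77 μM ATP, 5 mM MgCl2, 1% DMSO, 50 min at room temperature; compounds 1 μM–0.05 nM. HTRF KinEASE detection overnight; 665/620 ratio converted to inhibition and IC50 from 4-parameter fit.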

Recombinant human TRKC = target: T3, Recombinant human TRKC (Homo sapiens, UniProt Q16288); experiment: In vitro activity test on TRKC kinase (HTRF KinEASE TK); type: biochemical; details: 25.64 μM ATP, 40 min
T3 construct: purchased Carna Biosciences
Summary of the method: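 Recombinant human TRKC (0.037 ng/μL) with 1 μM biotinylated TK substrate, 25.64 μM ATP, 5 mM MgCl2, 1 mM DTT, 40 min at room temperature; compound 1 μM to 0.05 nM, 1% DMSO. HTRF 665/620 ratio after overnight detection; IC50 from 4-parameter fit.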

[1] = target: T4, recombinant human TRKA (G595R) (Homo sapiens, UniProt P04629, G595R); experiment: In vitro activity test on mutant TRKA (G595R) (HTRF KinEASE TK); type: biochemical; details: 4.5 μM ATP, 30 min
T4 construct: purchased SignalChem
Summary of the method: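 HTRF KinEASE TK format: 0.12 ng/μL recombinant TRKA (G595R), 1 μM biotinylated TK substrate, 4.5 μM ATP, 5 mM MgCl2, 1 mM DTT, 1% DMSO, 30 min at room temperature; detection overnight. IC50 from 10-point 4-fold series (1 μM to 0.004 nM, duplicates), 665/620 ratio, 4-parameter fit.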

[2] = target: T5, recombinant human TRKA (G667C) (Homo sapiens, UniProt P04629, G667C); experiment: In vitro activity test on mutant TRKA (G667C) (HTRF KinEASE TK); type: biochemical; details: 5.5 μM ATP, 30 min
T5 construct: purchased SignalChem
Summary of the method: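 HTRF KinEASE TK format with recombinant human TRKA G667C (0.026 ng/μL), 1 μM biotinylated TK substrate, 5.5 […] ATP, 5 mM MgCl2, 1 mM DTT, 1% DMSO; 30 min at room temperature. Detection overnight; 665/620 ratio gives % inhibition, IC50 from 4-parameter fit over 10 doses (1 μM–0.004 nM).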

KM12-LUC cells = experiment: KM12-LUC cell proliferation experiment (CellTiter-Glo, 72 hours); type: cell-based; details: Homo sapiens; KM12-LUC cells expressing TPM3-NTRK1 fusion gene
From the text: Biological Test Example 3: KM12-LUC Cell Proliferation Experiment
Human colon cancer cell line KM12-LUC (LUC, stably expressing Luciferase) expressing TPM3-NTRK1 fusion gene was used to evaluate cellular activity of the compounds cellular level. The TRK fusion gene in KM12-LUC cells makes it independent on the stimulation of extracellular growth factor, sustainably self-activate and activate the downstream signal pathway associated with cell proliferation such as MAPK-ERK, PI3K-AKT, or the like. […] The method was as follows: On the first day, the cells were seeded into 384-well plates at 2,000 cells/well; on the second day, different concentrations of test compounds were added; and on the 5th day, CellTiter-Glo (Promega) was added to detect cellular potency, and 72 hours cell proliferation inhibition rate was calculated. Statistical analysis was carried out by Prism5 and the inhibition rate of the test compound were calculated, as shown in FIG. 1.

ΔTRKA(G595R) = target: T6, ΔTRKA(G595R) (Homo sapiens, UniProt P04629, G595R, form not given); experiment: Detection of TRK kinase activity on cellular level by ELISA, ΔTRKA(G595R)/NIH-3T3 cells; type: cell-based; details: NIH-3T3 cells stably expressing ΔTRKA(G595R), 2 hours treatment
T6 construct: NIH-3T3 cell line stably expressing ΔTRKA or ΔTRKA(G595R) was constructed by plasmid transfection
Procedure: Biological Test Example 4: Detection of TRK Kinase Activity on Cellular Level by ELISA
NIH-3T3 cell line stably expressing ΔTRKA or ΔTRKA(G595R) was constructed by plasmid transfection.
On the first day, cells were seeded into a 96-well cell culture plate, 10000 cells/well in the medium (DMEM+10% FBS). On the second day, different concentrations of test compounds were added to treat cells for 2 hours, then the cell culture plate was placed on ice; and the supernatant was removed and washed with pre-cooled PBS once. The cells were lysed with NP40 lysis buffer containing protease and phosphatase inhibitor, transferred to an antibody pre-coated plate, and sealed to incubate overnight at 4° C. The remaining steps were proceeded according to the method provided in the ELISA kit (eg, as described in R&D DYC2578-2), results were shown in Table 2.

[3] = Pharmacokinetics experiment in mice; type: in vivo, ICR mice; details: mouse, 5 mg/kg; for Cmax / half-life / AUC(0-t): ICR, plasma, po; for AUC(0-t) / F: p.o.; for AUC(0-t): read-out: AUC0-24 hr
Procedure: Biological Test Example 6: Pharmacokinetics Experiment of Small Molecular Inhibitors of the Present Invention in Mice
Tested compounds were administered to ICR mice via intravenous administration (IV) and para-oral (PO) administration, and blood samples were taken at different time points. The concentration of the tested article in mouse plasma was measured by LC-MS/MS, and relevant parameters were calculated. Specifically, a desired amount of a compound to be tested was taken and formulated in 5% DMSO+10% Solutol+85% injection water to form a solution at desired concentration for intravenous administration or para-oral administration. Animals were about 6-8 weeks old when the administration experiment started. Blood collection time for intravenous administration: 0.083 h, 0.25 h, 0.5 h, 1 h, 2 h, 4 h, 8 h, and 24 h after administration. Blood collection time for oral administration: 0.25 h, 0.5 h, 1 h, 2 h, 4 h, 6 h, 8 h and 24 h after administration. The biological sample analysis method and sample detection method were established. The pharmacokinetic parameters were calculated using Phoenix Winnonlin 7.0 software according to plasma concentration data at different time points, such as AUC(0-t), AUC(0-∞), T½, Cmax, Tmax, and MRT.

T4 sequence (P04629 33-796 G595R): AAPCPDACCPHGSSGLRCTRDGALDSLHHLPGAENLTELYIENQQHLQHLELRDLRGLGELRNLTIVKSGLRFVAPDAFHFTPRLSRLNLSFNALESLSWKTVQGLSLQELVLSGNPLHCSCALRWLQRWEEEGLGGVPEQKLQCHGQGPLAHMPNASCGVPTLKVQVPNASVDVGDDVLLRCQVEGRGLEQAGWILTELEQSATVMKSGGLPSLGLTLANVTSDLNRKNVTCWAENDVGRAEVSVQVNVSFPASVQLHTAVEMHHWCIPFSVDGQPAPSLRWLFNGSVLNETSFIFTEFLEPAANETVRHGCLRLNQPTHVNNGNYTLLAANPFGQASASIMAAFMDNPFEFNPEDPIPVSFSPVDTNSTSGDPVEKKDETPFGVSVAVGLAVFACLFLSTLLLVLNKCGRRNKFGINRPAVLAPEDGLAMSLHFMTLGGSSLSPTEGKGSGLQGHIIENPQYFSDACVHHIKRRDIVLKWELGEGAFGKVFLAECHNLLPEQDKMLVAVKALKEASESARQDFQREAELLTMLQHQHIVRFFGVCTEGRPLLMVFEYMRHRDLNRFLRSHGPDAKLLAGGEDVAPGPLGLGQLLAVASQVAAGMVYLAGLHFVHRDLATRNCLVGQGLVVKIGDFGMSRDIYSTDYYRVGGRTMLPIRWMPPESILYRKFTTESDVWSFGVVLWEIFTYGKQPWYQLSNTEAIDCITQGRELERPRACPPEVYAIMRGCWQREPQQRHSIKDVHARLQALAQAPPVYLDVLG
T6 sequence (P04629 440-796 G595R limits assumed, form open): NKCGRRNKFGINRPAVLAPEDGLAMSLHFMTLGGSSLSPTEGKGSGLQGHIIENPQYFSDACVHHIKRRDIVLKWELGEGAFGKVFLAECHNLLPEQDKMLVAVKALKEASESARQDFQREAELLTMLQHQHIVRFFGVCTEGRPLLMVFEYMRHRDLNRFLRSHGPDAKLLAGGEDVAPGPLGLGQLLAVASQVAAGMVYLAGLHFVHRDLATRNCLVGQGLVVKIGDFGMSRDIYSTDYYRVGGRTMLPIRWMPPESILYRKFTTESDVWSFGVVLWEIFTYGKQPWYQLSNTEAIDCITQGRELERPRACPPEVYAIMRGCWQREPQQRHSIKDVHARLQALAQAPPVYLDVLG
T2 sequence (Q16620 32-822): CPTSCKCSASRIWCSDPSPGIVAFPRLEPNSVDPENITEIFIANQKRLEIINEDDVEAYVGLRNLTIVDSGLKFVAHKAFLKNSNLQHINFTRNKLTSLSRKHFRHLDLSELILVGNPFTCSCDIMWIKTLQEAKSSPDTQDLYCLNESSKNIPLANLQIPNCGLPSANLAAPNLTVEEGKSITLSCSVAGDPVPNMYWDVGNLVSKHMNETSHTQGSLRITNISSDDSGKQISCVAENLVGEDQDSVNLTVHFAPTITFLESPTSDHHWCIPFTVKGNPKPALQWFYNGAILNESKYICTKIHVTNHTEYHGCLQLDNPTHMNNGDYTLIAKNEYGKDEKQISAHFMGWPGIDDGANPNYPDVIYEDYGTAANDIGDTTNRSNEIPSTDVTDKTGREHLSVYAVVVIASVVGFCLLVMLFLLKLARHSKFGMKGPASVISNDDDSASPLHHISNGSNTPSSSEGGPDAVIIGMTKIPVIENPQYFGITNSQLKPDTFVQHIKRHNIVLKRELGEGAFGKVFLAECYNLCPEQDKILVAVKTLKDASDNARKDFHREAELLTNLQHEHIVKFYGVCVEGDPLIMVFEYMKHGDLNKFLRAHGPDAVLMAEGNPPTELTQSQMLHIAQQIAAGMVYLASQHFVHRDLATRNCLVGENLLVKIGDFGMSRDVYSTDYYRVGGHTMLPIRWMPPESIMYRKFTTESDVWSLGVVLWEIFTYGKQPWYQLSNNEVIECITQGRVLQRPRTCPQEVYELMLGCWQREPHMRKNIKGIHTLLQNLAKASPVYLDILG
T1 sequence (P04629 33-796): as the sequence (P04629 33-796 G595R) above, with R563G counted along it
T5 sequence (P04629 33-796 G667C): as the sequence (P04629 33-796 G595R) above, with R563G, G635C counted along it
T3 sequence (Q16288 32-839): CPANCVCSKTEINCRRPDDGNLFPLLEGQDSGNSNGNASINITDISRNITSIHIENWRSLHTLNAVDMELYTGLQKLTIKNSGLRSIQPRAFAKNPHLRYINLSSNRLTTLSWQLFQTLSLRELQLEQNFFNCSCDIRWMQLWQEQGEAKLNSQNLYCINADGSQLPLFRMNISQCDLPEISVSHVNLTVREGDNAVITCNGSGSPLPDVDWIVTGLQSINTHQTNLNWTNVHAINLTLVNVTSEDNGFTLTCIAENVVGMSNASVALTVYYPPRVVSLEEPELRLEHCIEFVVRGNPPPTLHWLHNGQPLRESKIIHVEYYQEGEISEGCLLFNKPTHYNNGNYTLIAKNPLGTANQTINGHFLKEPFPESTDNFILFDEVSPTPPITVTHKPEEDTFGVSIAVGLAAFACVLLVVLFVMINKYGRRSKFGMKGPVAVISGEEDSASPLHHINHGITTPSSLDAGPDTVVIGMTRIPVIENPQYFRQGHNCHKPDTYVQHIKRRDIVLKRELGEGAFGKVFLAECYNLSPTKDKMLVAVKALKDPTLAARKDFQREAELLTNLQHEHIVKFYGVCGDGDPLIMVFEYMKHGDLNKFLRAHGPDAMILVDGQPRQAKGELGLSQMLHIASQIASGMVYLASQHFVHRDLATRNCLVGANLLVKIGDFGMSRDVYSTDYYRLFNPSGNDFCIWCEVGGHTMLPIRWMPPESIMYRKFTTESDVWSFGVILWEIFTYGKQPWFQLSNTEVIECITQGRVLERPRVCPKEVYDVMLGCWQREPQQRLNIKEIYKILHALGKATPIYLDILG

Row | SMILES | IC50 (Recombinant human TRKA) | IC50 (Recombinant human TRKB) | IC50 (Recombinant human TRKC) | IC50 [1] | IC50 [2] | IC50 (KM12-LUC cells) | IC50 (ΔTRKA(G595R)) | Cmax [3] | half-life [3] | AUC(0-t) [3] | F [3]
1 | Fc1ccc(F)c([C@H]2CCCN2c2ccc3nccc(-c4cnn(C5CCNCC5)c4)c3n2)c1 [Example 7, (R)-2-(2-(2,5-Difluorophenyl)pyrrolidin-1-yl)-8-(1-(piperidin-4-yl)-1H-pyrazol-4-yl)-1,5-naphthyridine] | < 50 nM | < 100 nM | < 50 nM | < 1 nM | < 1 nM | < 10 nM | < 10 nM |  |  |  | 
2 | Fc1ccc(F)c([C@H]2C[C@H](F)CN2c2ccc3ncc(Cl)c(-c4cnn(C5CCNCC5)c4)c3n2)c1 [Example 16, 7-chloro-2-((2R,4S)-2-(2,5-difluorophenyl)-4-fluoropyrrolidin-1-yl)-8-(1-(piperidin-4-yl)-1H-pyrazol-4-yl)-1,5-naphthyridine] | < 1 nM | < 1 nM | < 1 nM | < 10 nM | < 1 nM |  |  | 714 ng/mL | 2.34 h | 3230 ng·h/mL | 107%
3 | Fc1ccc(F)c([C@H]2C[C@H](F)CN2c2ccc3ncc(F)c(-c4cnn(C5CCNCC5)c4)c3n2)c1 [Example 20] | < 1 nM | < 1 nM | < 1 nM | < 1 nM | < 1 nM |  |  | 448 ng/mL | 2.82 h | 2700 ng·h/mL | 144%
4 | Fc1ccc(F)c([C@H]2C[C@H](F)CN2c2ccc3ncc(Cl)c(-c4ccc(C5CCNCC5)nc4)c3n2)c1 [Example 63, 7-chloro-2-((2R,4S)-2-(2,5-difluorophenyl)-4-fluoropyrrolidin-1-yl)-8-(6-(piperidin-4-yl)pyridin-3-yl)-1,5-naphthyridine] | < 1 nM | < 10 nM | < 10 nM | < 10 nM |  | < 10 nM | < 10 nM |  |  |  | 
5 | [2H]c1nc(-c2cnn(C3CCNCC3)c2)c2nc(N3C[C@@H](F)C[C@@H]3c3cc(F)ccc3F)ccc2n1 [Example 58] | < 1 nM | < 10 nM | < 1 nM | < 1 nM | < 1 nM | < 10 nM | < 10 nM |  |  |  | 
6 | O=C1CNCCN1c1ccc(-c2c(F)cnc3ccc(N4C[C@@H](F)C[C@@H]4c4cc(F)ccc4F)nc23)cn1 [Example 97, 1-(5-(6-((2R,4S)-2-(2,5-difluorophenyl)-4-fluoropyrrolidin-1-yl)-3-fluoro-1,5-naphthyridin-4-yl)pyridin-2-yl)piperazin-2-one] | < 1 nM | < 10 nM | < 1 nM |  |  | < 10 nM |  |  |  |  | 
7 | O[C@@H]1CCN(c2ccc(-c3c(Cl)cnc4ccc(N5C[C@@H](F)C[C@@H]5c5cc(F)ccc5F)nc34)cn2)C1 [Example 65, (R)-1-(5-(3-chloro-6-((2R,4S)-2-(2,5-difluorophenyl)-4-fluoropyrrolidin-1-yl)-1,5-naphthyridin-4-yl)pyridin-2-yl)pyrrolidin-3-ol] | < 1 nM | < 10 nM | < 10 nM | < 10 nM | < 10 nM | < 10 nM | < 10 nM |  |  |  | 
